The results in this text go back to patent US20190292516A1, “METHOD FOR IMPROVING PRODUCT TITER IN A CELL AND A CELL MEDIA FOR IMPROVING THE SAME” (VALITACELL LIMITED, priority 2018, published 2019).

What all share (type): cell-based, Chinese Hamster
Data set [1] deals with CHO-S stable clone producing an anti-Her2 like IgG1 antibody. Nature of the data set: Batch shake flask culture supplemented with 3TAA. Conditions: 2.5 mM, Day 0 addition, 10 days. On the procedure:
(§1) Shake flask cultures were performed in vented Erlenmeyer flasks with a 30 ml working culture volume. Cells were seeded at 0.2×10^6 cells ml^−1. 3TAA was added at 2.5 mM (optimum concentrations from deep well plate culture) on Day 0. Growth and titer were monitored daily. Total RNA and histone extracts were collected from Day 5 of culture. Cell cycle and apoptosis analysis were performed on Day 4 and Day 5 post seeding respectively.

Data set [2] in a line: Batch shake flask culture supplemented with 3TAA. Conditions: Chinese hamster, CHO-S stable clone producing an anti-Her2 like IgG1 antibody, Day 0 addition. On the procedure: as §1
The subject of data set [3] is CHO-S stable clone producing an anti-Her2 like IgG1 antibody. Nature of the data set: Cell cycle analysis by propidium iodide staining and flow cytometry. As to conditions: 3TAA 2.5 mM added Day 0, shake flask, analysed Day 4. On the procedure: as §1
1×10^6 cells were extracted from culture and fixed in 4% paraformaldehyde (Alfa Aesar; Thermo Fisher Scientific). The cells were then stained with propidium iodide using the FxCycle™ PI/RNase Staining Solution (Thermo Fisher Scientific). Cell cycle analysis was performed on the Attune Acoustic Focusing Cytometer (Thermo Fisher Scientific).
On the technique in general: In flow cytometry, cells or beads pass a laser one at a time.

Data set [4] shares this test system. Put plainly: Deep well shaking plate culture with chemical enhancer added at Day 0 or Day 3; cell growth, viability and titer. On the procedure:
The Applicant uses a platform consisting of screening Chinese Hamster Ovary (CHO) cell clone leads grown in a deep well plate coated with media containing 3TAA. The cells are measured for increased growth and productivity (titer) to determine whether 3TAA, and other enhancer chemicals, have offered the optimum cell culture environment, and can improve the growth and/or productivity of promising lead clones, which otherwise, grown in sub-optimal conditions, would not have been selected. To establish optimum concentration for the best titer boost, high throughput experimentation was performed in 96 deep well plates (Greiner Bio-One, Gloucestershire, United Kingdom). The cell line used was a CHO-S stable clone producing an anti-Her2 like IgG1 antibody. Cells were cultured in CD CHO medium (Thermo Fisher Scientific, Paisley, UK), supplemented with 8 mM L-glutamine, 1% HT supplement and 12.5 ug/ml puromycin selection marker (Thermo Fisher Scientific, Paisley, UK). Cells grown in these plates were incubated at 320 rpm (25 mm throw), 37° C., 5% CO2 and 85% humidity. The plates were covered with vented lids and secured using clamps (“System Duetz”; Enzyscreen B.V., Heemstede, Netherlands). Cells were seeded at 0.2×10^6 cells ml^−1 with a seeding volume of 450 μL (unless specified otherwise). Chemical enhancer molecules, including 3TAA, were trialled at 4 to 10 different concentrations at Day 0 in culture. Subsequently, a subset of concentrations was carried forward for delayed addition at Day 3 of culture. Day 3 was chosen based on the cell growth profile in deep well plates. Cells were cultured for 5 days before culture attributes (cell growth and titer) were recorded, unless otherwise stated. Cell growth was measured using the PrestoBlue® Assay (ThermoFisher Scientific), viability was verified using the Vi-cell™ cell viability analyser (Beckmann Coulter, High Wycombe, UK), and titer was measured using the Valita™TITER assay (Valitacell, Dublin, Ireland).

For data set [5] the test system is unchanged. Nature of the data set: Apoptosis analysis of 3TAA supplemented shake flask cultures. As to conditions: 3TAA 2.5 mM added Day 0, shake flask, analysed Day 5. On the procedure:
as §1

Setting [6] is: 3TAA 2.5 mM, Day 0 addition, deep well plate.

Take `O=C(O)Cc1ccsc1` [3TAA, 3-Thiopheneacetic acid]: the “culture viability in comparison to vehicle and no addition controls” value in data set [1] is on record as “remained unaffected”. Further, the “increase in total volumetric titer” value in data set [1] came to 1.9 fold. The decrease in peak viable cell density at 10 days, 2.5 mM in data set [2] was found to be 30%. The “increase in accumulation in the G1 phase” value in data set [3] is given as 11%. The “reduction in IVCD” value in data set [4] (2.5 mM, Day 0 addition) stood at 25%; in data set [4] (2.5 mM, Day 3 addition) it was 20%; in data set [4] (4 mM, Day 0 addition) it was 50%; in data set [4] (4 mM, Day 3 addition), 25%. The titer boost was 160% in data set [4] (2.5 mM, Day 0 addition); 177% in data set [4] (2.5 mM, Day 3 addition); 17% in data set [4] (4 mM, Day 0 addition); 125% in data set [4] (4 mM, Day 3 addition); 1.59 fold in data set [4] (setting [6]); 2.6 fold in data set [4] (delayed addition at exponential phase (Day 3), concentration not given). Also, the cell growth reduction in data set [4] (setting [6]) was 25%. For the same molecule, the “initiation of apoptotic pathways” value in data set [5] is “Apoptotic pathways were not initiated”.
